# pIC50: −log10 of the molar value. Counter-ions that a name gives are not always drawn.
# Molecular target: T1, human mGluR5 (Homo sapiens, UniProt P41594)
# T1 construct: expressed in transfected cells
# Test: Experiment for receptor function of mGluR5 (Ca2+-dependent fluorescence, FLIPR, CHO-K1 cells stably expressing human mGluR5)
# Type: cell-based
# Settings: L-glutamic acid 10 μM, Fluo-4 fluorescence
# Experimental: Stable expression cells in which the human mGluR5 gene had been introduced into a Chinese hamster ovary cell (CHO-K1) were used for evaluation. The cells were suspended in a growth medium (MEM-α (D8042, available from Sigma) containing 10% inactivated FBS (Cat. No. 171012, available from CCB) and 2 mM glutamax (Cat. No. 35050, available from GIBCO)) and seeded on a black clear-bottom 96-well plate at 100,000 cells per well. One day after seeding, the medium was replaced by a medium (Hanks' balanced salt solution (HBSS buffer solution) (20 mM HEPES, 2.5 mM probencide (165-15472, available from Wako Pure Chemical Industries, Ltd.), and 10×HBSS (14065-056, available from Gibco) diluted 10 times, pH 7.4)) containing a calcium-sensitive dye Fluo-4 AM at a final concentration of […] (F312, available from Dojindo Laboratories) and Pluronic F-127 at a final concentration of 0.0145% (P-2443, available from Sigma), followed by incubation at 37° C. for one hour, thereby loading Fluo-4 AM into the cells.
# Subsequently, the cells were washed twice with an HBSS buffer solution, to which was subsequently added the same buffer solution. Twenty minutes thereafter, the plate was transferred into a fluorescence screening system (FLIPR TETRA, available from Molecular Devices, LLC) and measured for a Ca^2+-dependent fluorescence change in the cells.
# First of all, a fluorescence baseline was measured, and thereafter, fluorescence measurement was performed for 2 minutes while adding a test substance, an excessive amount of 6-methyl-2-(phenylethynyl)pyridine (hereinafter referred to as “MPEP”) (final concentration: 10 μM), or the medium. Thereafter, fluorescence measurement was carried out for one minute while adding L-glutamic acid (final concentration: 10 μM).
# While taking a fluorescence intensity caused by L-glutamic acid as 100% and a fluorescence intensity caused by L-glutamic acid in the presence of MPEP as 0%, respectively, function inhibitory activity against human mGluR5 was evaluated from the fluorescence intensity caused by L-glutamic acid in the presence of the test substance at each concentration, and an IC50 value was estimated according to a logistic equation (SAS System).
# T1 sequence (P41594 21-1212): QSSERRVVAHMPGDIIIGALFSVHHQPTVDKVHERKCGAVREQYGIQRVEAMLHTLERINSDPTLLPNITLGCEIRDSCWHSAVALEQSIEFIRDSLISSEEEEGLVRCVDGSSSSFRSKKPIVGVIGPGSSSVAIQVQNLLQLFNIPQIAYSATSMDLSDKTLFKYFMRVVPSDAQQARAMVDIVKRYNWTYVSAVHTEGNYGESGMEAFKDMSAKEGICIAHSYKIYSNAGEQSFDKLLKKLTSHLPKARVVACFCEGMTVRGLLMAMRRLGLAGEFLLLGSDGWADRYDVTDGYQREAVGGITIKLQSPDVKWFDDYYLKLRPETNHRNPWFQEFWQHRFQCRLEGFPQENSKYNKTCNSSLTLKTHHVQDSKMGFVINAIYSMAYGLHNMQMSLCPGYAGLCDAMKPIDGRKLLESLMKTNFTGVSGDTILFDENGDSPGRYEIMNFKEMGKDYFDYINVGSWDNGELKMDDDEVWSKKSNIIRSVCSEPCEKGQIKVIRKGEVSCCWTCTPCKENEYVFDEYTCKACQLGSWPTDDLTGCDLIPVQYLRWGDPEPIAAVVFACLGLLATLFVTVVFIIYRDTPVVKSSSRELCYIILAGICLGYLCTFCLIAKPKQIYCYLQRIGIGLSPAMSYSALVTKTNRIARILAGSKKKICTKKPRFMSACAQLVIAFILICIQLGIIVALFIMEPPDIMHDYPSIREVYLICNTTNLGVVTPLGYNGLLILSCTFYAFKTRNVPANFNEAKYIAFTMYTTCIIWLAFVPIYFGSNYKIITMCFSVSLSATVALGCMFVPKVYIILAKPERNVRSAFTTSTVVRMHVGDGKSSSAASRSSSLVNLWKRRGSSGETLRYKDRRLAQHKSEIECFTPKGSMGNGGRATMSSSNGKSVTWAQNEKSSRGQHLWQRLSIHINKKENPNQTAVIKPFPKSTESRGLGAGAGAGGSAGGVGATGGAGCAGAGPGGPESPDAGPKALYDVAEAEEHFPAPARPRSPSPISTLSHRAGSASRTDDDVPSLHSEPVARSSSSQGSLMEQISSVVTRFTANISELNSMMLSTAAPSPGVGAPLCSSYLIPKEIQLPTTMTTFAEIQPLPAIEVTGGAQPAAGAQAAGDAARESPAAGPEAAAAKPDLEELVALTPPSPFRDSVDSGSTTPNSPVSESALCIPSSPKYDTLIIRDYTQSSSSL
row,Structure (SMILES),pIC50
1,"Fc1ccc(COc2cc(-c3cncnc3)c3c(n2)CCC3)c(F)c1 [Example 18, 2-[(2,4-Difluorobenzyl)oxy]-4-(pyrimidin-5-yl)-6,7-dihydro-5H-cyclopenta[b]pyridine]",6.98
2,"Fc1ccc(COc2cc(-c3cncnc3)c3c(n2)CCC3)nc1 [Example 25, 2-[(5-Fluoropyridin-2-yl)methoxy]-4-(pyrimidin-5-yl)-6,7-dihydro-5H-cyclopenta[b]pyridine]",7.22
3,"Fc1cnccc1COc1cc(-c2cncnc2)c2c(n1)CCC2 [Example 32, 2-[(3-Fluoropyridin-4-yl)methoxy]-4-(pyrimidin-5-yl)-6,7-dihydro-5H-cyclopenta[b]pyridine]",7.51
4,"c1csc(COc2cc(-c3cncnc3)c3c(n2)CCC3)c1 [Example 34, 4-(Pyrimidin-5-yl)-2-(thiophen-2-ylmethoxy)-6,7-dihydro-5H-cyclopenta[b]pyridine]",7.82
5,"Clc1ccc(COc2cc(-c3cncnc3)c3c(n2)CCC3)s1 [Example 35, 2-[(5-Chlorothiophen-2-yl)methoxy]-4-(pyrimidin-5-yl)-6,7-dihydro-5H-cyclopenta[b]pyridine]",7.24
6,"N#Cc1ncc(-c2cc(OCc3ccccn3)nc3c2CCC3)cn1 [Example 37, 5-[2-(Pyridin-2-ylmethoxy)-6,7-dihydro-5H-cyclopenta[b]pyridin-4-yl]pyrimidine-2-carbonitrile hydrochloride]",7.10
7,"Cc1ncc(-c2cc(OCc3ccc(F)cn3)nc3c2CCC3)cn1 [Example 40, 2-[(5-Fluoropyridin-2-yl)methoxy]-4-(2-methylpyrimidin-5-yl)-6,7-dihydro-5H-cyclopenta[b]pyridine hydrochloride]",7.11
8,"Cc1ncc(-c2cc(OCc3ncccc3F)nc3c2CCC3)cn1 [Example 41, 2-[(3-Fluoropyridin-2-yl)methoxy]-4-(2-methylpyrimidin-5-yl)-6,7-dihydro-5H-cyclopenta[b]pyridine]",7.52
9,"N#Cc1ncc(-c2cc(OCc3ncc(F)cc3F)nc3c2CCC3)cn1 [Example 44, 5-{2-[(3,5-Difluoropyridin-2-yl)methoxy]-6,7-dihydro-5H-cyclopenta[b]pyridin-4-yl}pyrimidine-2-carbonitrile]",6.78
10,"N#Cc1ncc(-c2cc(OCc3cccc(F)n3)nc3c2CCC3)cn1 [Example 48, 5-{2-[(6-Fluoropyridin-2-yl)methoxy]-6,7-dihydro-5H-cyclopenta[b]pyridin-4-yl}pyrimidine-2-carbonitrile]",7.14
11,"N#Cc1ncc(-c2cc(OCc3ccc(F)cn3)nc3c2CCC3)cn1 [Example 49, 5-{2-[(5-Fluoropyridin-2-yl)methoxy]-6,7-dihydro-5H-cyclopenta[b]pyridin-4-yl}pyrimidine-2-carbonitrile]",7.26
12,"N#Cc1ncc(-c2cc(OCc3ncccc3F)nc3c2CCC3)cn1 [Example 50, 5-{2-[(3-Fluoropyridin-2-yl)methoxy]-6,7-dihydro-5H-cyclopenta[b]pyridin-4-yl}pyrimidine-2-carbonitrile]",6.75
13,"N#Cc1cncc(-c2cc(OCc3ccccn3)nc3c2CCC3)n1 [Example 54, 6-[2-(Pyridin-2-ylmethoxy)-6,7-dihydro-5H-cyclopenta[b]pyridin-4-yl]pyrazine-2-carbonitrile hydrochloride]",7.70
14,"N#Cc1cccc(COc2cc(-c3cncc(CO)n3)c3c(n2)CCC3)n1 [Example 56, 6-[({4-[6-(Hydroxymethyl)pyrazin-2-yl]-6,7-dihydro-5H-cyclopenta[b]pyridin-2-yl}oxy)methyl]pyridine-2-carbonitrile]",6.31
15,"N#Cc1ccc(-c2cc(OCc3ccccn3)nc3c2CCC3)cc1F [Example 66, 2-Fluoro-4-[2-(pyridin-2-ylmethoxy)-6,7-dihydro-5H-cyclopenta[b]pyridin-4-yl]benzonitrile]",6.97
16,"CS(=O)(=O)Oc1cc(F)cc(-c2cc(OCc3ccccn3)nc3c2CCC3)c1 [Example 69, 3-Fluoro-5-[2-(pyridin-2-ylmethoxy)-6,7-dihydro-5H-cyclopenta[b]pyridin-4-yl]phenyl methanesulfonate]",7.03

# Other lines, results leading:
row,pIC50,Structure (SMILES)
1,6.84,"c1ccc(COc2cc(-c3cccnc3)c3c(n2)CCC3)nc1 [Example 1, 4-(Pyridin-3-yl)-2-(pyridin-2-ylmethoxy)-6,7-dihydro-5H-cyclopenta[b]pyridine dihydrochloride]"
2,6.83,"N#Cc1ccc(-c2cc(OCc3ccccn3)nc3c2CCC3)cn1 [Example 4, 5-[2-(Pyridin-2-ylmethoxy)-6,7-dihydro-5H-cyclopenta[b]pyridin-4-yl]pyridine-2-carbonitrile hydrochloride]"
3,7.44,"Fc1cccc(COc2cc(-c3cncnc3)c3c(n2)CCC3)n1 [Example 24, 2-[(6-Fluoropyridin-2-yl)methoxy]-4-(pyrimidin-5-yl)-6,7-dihydro-5H-cyclopenta[b]pyridine]"
4,6.98,"Cc1cccc(COc2cc(-c3cncnc3)c3c(n2)CCC3)n1 [Example 28, 2-[(6-Methylpyridin-2-yl)methoxy]-4-(pyrimidin-5-yl)-6,7-dihydro-5H-cyclopenta[b]pyridine]"
5,7.35,"Cc1ncc(-c2cc(OCc3ccccc3)nc3c2CCC3)cn1 [Example 38, 2-(Benzyloxy)-4-(2-methylpyrimidin-5-yl)-6,7-dihydro-5H-cyclopenta[b]pyridine]"
6,6.91,"Cc1ncc(-c2cc(OCc3cccc(F)n3)nc3c2CCC3)cn1 [Example 39, 2-[(6-Fluoropyridin-2-yl)methoxy]-4-(2-methylpyrimidin-5-yl)-6,7-dihydro-5H-cyclopenta[b]pyridine]"
7,7.94,"c1ccc(COc2cc(-c3cnccn3)c3c(n2)CCC3)nc1 [Example 53, 4-(Pyrazin-2-yl)-2-(pyridin-2-ylmethoxy)-6,7-dihydro-5H-cyclopenta[b]pyridine hydrochloride]"
8,6.46,"CC(C)(O)c1cncc(-c2cc(OCc3ccccn3)nc3c2CCC3)n1 [Example 55, 2-{6-[2-(Pyridin-2-ylmethoxy)-6,7-dihydro-5H-cyclopenta[b]pyridin-4-yl]pyrazin-2-yl}propan-2-ol]"
9,7.25,"Fc1cccc(-c2cc(OCc3ccccn3)nc3c2CCC3)c1 [Example 58, 4-(3-Fluorophenyl)-2-(pyridin-2-ylmethoxy)-6,7-dihydro-5H-cyclopenta[b]pyridine]"
10,7.22,"O=[N+]([O-])c1cccc(-c2cc(OCc3ccccn3)nc3c2CCC3)c1 [Example 63, 4-(3-Nitrophenyl)-2-(pyridin-2-ylmethoxy)-6,7-dihydro-5H-cyclopenta[b]pyridine]"
11,6.53,"Cc1ccc(-c2cc(OCc3ccccn3)nc3c2CCC3)cc1F [Example 64, 4-(3-Fluoro-4-methylphenyl)-2-(pyridin-2-ylmethoxy)-6,7-dihydro-5H-cyclopenta[b]pyridine]"
12,7.04,"Oc1cc(F)cc(-c2cc(OCc3ccccn3)nc3c2CCC3)c1 [Example 68, 3-Fluoro-5-[2-(pyridin-2-ylmethoxy)-6,7-dihydro-5H-cyclopenta[b]pyridin-4-yl]phenol]"
13,7.79,"Fc1cc(-c2cc(OCc3ccccn3)nc3c2CCC3)ccn1 [Example 73, 4-(2-Fluoropyridin-4-yl)-2-(pyridin-2-ylmethoxy)-6,7-dihydro-5H-cyclopenta[b]pyridine]"
14,7.79,"Cc1cccc(COc2cc(-c3cccnc3)c3c(n2)CCCC3)n1 [Example 83, 2-[(6-Methylpyridin-2-yl)methoxy]-4-(pyridin-3-yl)-5,6,7,8-tetrahydroquinoline]"
15,6.95,"Cc1ccc(COc2cc(-c3cccnc3)c3c(n2)CCCC3)nc1 [Example 84, 2-[(5-Methylpyridin-2-yl)methoxy]-4-(pyridin-3-yl)-5,6,7,8-tetrahydroquinoline]"
16,6.75,"Cc1ccnc(COc2cc(-c3cccnc3)c3c(n2)CCCC3)c1 [Example 85, 2-[(4-Methylpyridin-2-yl)methoxy]-4-(pyridin-3-yl)-5,6,7,8-tetrahydroquinoline]"
17,7.82,"Fc1cccc(COc2cc(-c3cccnc3)c3c(n2)CCCC3)n1 [Example 86, 2-[(6-Fluoropyridin-2-yl)methoxy]-4-(pyridin-3-yl)-5,6,7,8-tetrahydroquinoline]"
18,7.38,"COCc1cccc(COc2cc(-c3cccnc3)c3c(n2)CCCC3)n1 [Example 89, 2-{[6-(Methoxymethyl)pyridin-2-yl]methoxy}-4-(pyridin-3-yl)-5,6,7,8-tetrahydroquinoline]"
19,7.77,"c1cncc(-c2cc(OCc3ncco3)nc3c2CCCC3)c1 [Example 91, 2-(1,3-Oxazol-2-ylmethoxy)-4-(pyridin-3-yl)-5,6,7,8-tetrahydroquinoline]"
20,7.40,"Cc1coc(COc2cc(-c3cccnc3)c3c(n2)CCCC3)n1 [Example 92, 2-[(4-Methyl-1,3-oxazol-2-yl)methoxy]-4-(pyridin-3-yl)-5,6,7,8-tetrahydroquinoline]"

# — patent publication US20150225404A1, “PYRIDINE DERIVATIVE AND MEDICINE” (NIPPON SHINYAKU CO., LTD., priority 2012, published 2015)
